These are literature values, as cited in PMC12428582, “2-Styrylquinolines with Push-Pull Architectures as Sensors for β-Amyloid Aggregation with Theranostic Properties” (International Journal of Molecular Sciences, 2025).

Molecules are shown by their SMILES.

The data set relates to Aβ42. Also noted: method as in PMID 24900645. The settings on record: ThT-based fluorometric assay; cited from earlier work.

Take `Cc1ccc2nc(/C=C/c3ccc(N)cc3)ccc2c1` [A]: the “Inhibition of Aβ42 aggregation” value was “moderate fibrillization inhibitor and amyloid binder”.
